Data as given in ChEMBL document CHEMBL1121648, “Metabolism of 1,3-bis(2-chloroethyl)-1-nitrosourea by rat hepatic microsomes” (J Med Chem, 1981).

How the values were obtained:
Rattus norvegicus = species: Rattus norvegicus; experiment: NADPH-dependent metabolic rate was measured in rat liver microsomal preparations; format: functional
[1] = Half-life for disappearance of compound measured at 37 degree C and pH 7.4 in rat liver microsomal preparations; format: ADME; conditions: liver microsomes

| Structure (SMILES) | Rate (nM (mg of protein)-1) (Rattus norvegicus) | half-life [1] [h] |
| --- | --- | --- |
| O=C(NCCCl)NCCCl | 54 | – |
| O=NN(CCCl)C(=O)NCCCl [CARMUSTINE] | 56 | 1.5 |
